From ChEMBL document CHEMBL5036301, “Heteroaryl ether analogues of an antileishmanial 7-substituted 2-nitroimidazooxazine lead afford attenuated hERG risk: In vitro and in vivo appraisal” (Eur J Med Chem, 2021)
In brackets after ≈: the same amount, converted by molar mass.

Legend:
[1] = system: Mycobacterium tuberculosis; test: Antitubercular activity against Mycobacterium tuberculosis H37Rv assessed as reduction in microbial growth under anaerobic condition by luminescence analysis; format: functional
Trypanosoma cruzi = test: Antitrypanosomal activity against Trypanosoma cruzi Tulahuen CL2 infected in human MRC-5 cells assessed as parasite growth; format: functional, organism-based; details: Tulahuen CL2, MRC5
Leishmania donovani [2] = test: Antileishmanial activity against Leishmania donovani amastigotes infected in mouse J774A.1 cells incubated for 72 hrs by luciferase assay; format: functional, organism-based; details: J774.A1, 72 h
[3] = system: Mycobacterium tuberculosis; test: Antitubercular activity against Mycobacterium tuberculosis H37Rv assessed as reduction in microbial growth under aerobic condition by luminescence analysis; format: functional
MRC5 = test: Cytotoxicity against human MRC5 cells assessed as cell viability after 72 hrs by fluorimetric analysis; format: ADME, cell-based; details: MRC5, 72 h
Leishmania infantum = test: Antileishmanial activity against Leishmania infantum MHOM/MA(BE)/67 amastigotes infected in macrophages assessed as reduction in parasite burden by giemsa staining based microscopic analysis; format: functional, organism-based
[4] = Selectivity index, ratio IC50 for cytotoxicity against human MRC5 cells to IC50 for antileishmanial activity against Leishmania infantum MHOM/MA(BE)/67 amastigotes infected in macrophages
[5] = Kinetic solubility of compound in water at pH7 by HPLC analysis; details: pH 7
hERG (KCNH2) = hERG (KCNH2) (Homo sapiens, UniProt Q12809); test: Inhibition of human ERG expressed in HEK293 cells at 10 uM relative to control; format: cell-based; details: HEK293 cells expressing human ERG
[6] = Stability of compound in CD-1 mouse liver microsomes assessed as percentage of parent compound remaining at 1 uM measured after 1 hr
Leishmania donovani [7] = test: Antileishmanial activity against Leishmania donovani amastigotes infected in BALB/C mouse assessed as reduction in parasite burden in liver tissue at 50 mg/kg, po administered once per day for 5 days relative to control; format: functional; details: 120 h, time 5 day
[8] = Stability of compound in hamster liver microsomes assessed as percentage of parent compound remaining at 1 uM measured after 1 hr; details: chinese hamster
[9] = Stability of compound in human liver microsomes assessed as percentage of parent compound remaining at 1 uM measured after 1 hr
[10] = Initial plasma concentration in mouse at 1 mg/kg, iv measured upto 24 hrs LC-MS/MS analysis
[11] = AUClast in mouse at 1 mg/kg, iv measured upto 24 hrs LC-MS/MS analysis; details: in vivo
in vivo [12] = details: mouse, po, 25 mg/kg
in vivo [13] = details: mouse, po, 25 mg/kg; remark: listed apart in the source
[14] = AUClast in mouse at 25 mg/kg, po measured upto 24 hrs LC-MS/MS analysis; details: in vivo
[15] = Clearance in mouse at 1 mg/kg, iv measured upto 24 hrs LC-MS/MS analysis; details: in vivo
[16] = Volume of distribution at steady state in mouse at 1 mg/kg, iv measured upto 24 hrs LC-MS/MS analysis; details: in vivo
[17] = Half life in mouse at 1 mg/kg, iv measured upto 24 hrs LC-MS/MS analysis; details: in vivo
in vivo [18] = details: mouse, po, 25 mg/kg; remark: listed apart in the source

Sequence of hERG (KCNH2) (Q12809 whole entry): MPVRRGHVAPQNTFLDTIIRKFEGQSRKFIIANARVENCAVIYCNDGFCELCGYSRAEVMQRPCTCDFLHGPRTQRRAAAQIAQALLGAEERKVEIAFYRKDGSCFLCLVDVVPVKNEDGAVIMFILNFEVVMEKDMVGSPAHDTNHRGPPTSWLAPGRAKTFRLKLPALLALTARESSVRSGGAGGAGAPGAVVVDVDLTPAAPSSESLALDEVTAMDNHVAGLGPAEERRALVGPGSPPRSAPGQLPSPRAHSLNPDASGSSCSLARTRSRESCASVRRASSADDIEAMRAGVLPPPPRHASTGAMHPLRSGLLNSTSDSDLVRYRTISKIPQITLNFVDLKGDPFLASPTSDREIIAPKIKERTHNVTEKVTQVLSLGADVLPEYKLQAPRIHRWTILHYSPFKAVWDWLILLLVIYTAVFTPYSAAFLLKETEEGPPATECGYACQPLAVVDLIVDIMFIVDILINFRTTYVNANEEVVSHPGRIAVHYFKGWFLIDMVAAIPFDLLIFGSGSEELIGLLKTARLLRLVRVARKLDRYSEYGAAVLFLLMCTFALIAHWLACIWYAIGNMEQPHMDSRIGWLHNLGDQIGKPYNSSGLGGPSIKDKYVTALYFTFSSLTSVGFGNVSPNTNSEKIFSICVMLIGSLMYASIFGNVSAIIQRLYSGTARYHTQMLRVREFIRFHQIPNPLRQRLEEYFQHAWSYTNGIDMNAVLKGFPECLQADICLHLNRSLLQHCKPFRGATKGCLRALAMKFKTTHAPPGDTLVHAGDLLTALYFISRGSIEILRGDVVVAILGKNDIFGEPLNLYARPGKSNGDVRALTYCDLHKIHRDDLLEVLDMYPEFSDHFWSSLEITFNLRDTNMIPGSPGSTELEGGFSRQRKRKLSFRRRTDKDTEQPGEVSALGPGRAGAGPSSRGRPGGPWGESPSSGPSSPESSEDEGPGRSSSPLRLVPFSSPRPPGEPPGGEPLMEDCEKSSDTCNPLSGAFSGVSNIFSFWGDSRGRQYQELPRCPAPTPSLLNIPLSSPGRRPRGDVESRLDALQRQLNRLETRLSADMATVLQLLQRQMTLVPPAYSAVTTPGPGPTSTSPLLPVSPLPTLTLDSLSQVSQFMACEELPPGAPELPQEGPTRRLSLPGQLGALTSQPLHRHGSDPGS

Compound | MIC [1] [µM] | IC50 (Trypanosoma cruzi) [nM] | IC50 (Leishmania donovani [2]) [nM] | MIC [3] [µM] | IC50 (MRC5) [nM] | IC50 (Leishmania infantum) [nM] | selectivity ratio [4] | solubility kinetic [5] [µg/mL] | inhibition in vivo at 50 mg/kg (Leishmania donovani [7]) [%] | also measured
O=[N+]([O-])c1cn2c(n1)OC(COc1ccc(OC(F)(F)F)cc1)CC2 (stereo not given) | 4.7 | 61 | 40 | 5.2 | – | – | – | – | – | –
CC1(COc2ccc(Cl)cc2)CCn2cc([N+](=O)[O-])nc2O1 (stereo not given) | 7 | 180 | 50 | 0.86 | > 64000 | 130 | > 492 | – | – | –
CC1(COc2ccc(F)cc2)CCn2cc([N+](=O)[O-])nc2O1 (stereo not given) | 5 | 450 | 290 | 1.3 | > 64000 | 450 | > 142 | – | – | –
O=[N+]([O-])c1cn2c(n1)OC(COc1ccc(Cl)cn1)CC2 (stereo not given) | – | 940 | 100 | – | > 64000 | > 64000 | – | 18 (≈ 57.9 µM) | – | inhibition at 10 µM (hERG (KCNH2)): 17%
CC1(COc2cnc(C(F)(F)F)cn2)CCn2cc([N+](=O)[O-])nc2O1 (stereo not given) | – | 940 | – | – | > 64000 | 2200 | > 29 | 17 (≈ 47.3 µM) | 17 | remaining at 1 h, 1 µM [6]: 90%; remaining at 1 h, 1 µM [8]: 36%; remaining at 1 h, 1 µM [9]: 91%
CC1(COc2ncc(C(F)(F)F)cc2Cl)CCn2cc([N+](=O)[O-])nc2O1 (stereo not given) | – | 290 | – | – | > 64000 | 260 | > 246 | 11 (≈ 28 µM) | 0 | remaining at 1 h, 1 µM [6]: 14%; remaining at 1 h, 1 µM [8]: 0%; remaining at 1 h, 1 µM [9]: 23%
CC1(COc2ccc(C(F)(F)F)nn2)CCn2cc([N+](=O)[O-])nc2O1 (stereo not given) | – | 3800 | – | – | > 64000 | > 64000 | – | 10 (≈ 27.8 µM) | 0 | remaining at 1 h, 1 µM [6]: 89%; remaining at 1 h, 1 µM [8]: 58%; remaining at 1 h, 1 µM [9]: 90%
CC1(COc2ncc(F)cn2)CCn2cc([N+](=O)[O-])nc2O1 (stereo not given) | – | 14000 | 670 | – | > 64000 | > 64000 | – | – | – | –
O=[N+]([O-])c1cn2c(n1)OC(COc1cccc(C(F)(F)F)n1)CC2 (stereo not given) | – | 530 | – | – | > 64000 | > 64000 | – | – | – | –
CC1(COc2ccc(Cl)cn2)CCn2cc([N+](=O)[O-])nc2O1 (stereo not given) | 8.7 | 630 | 150 | 2 | > 64000 | 380 | – | 23 (≈ 70.8 µM) | 14 | C0 at 24 h [10]: 2600 ng/mL; AUC(0-t) at 24 h [11]: 2010 ng·h/mL; Tmax at 24 h (in vivo [12]): 1 h; bioavailability at 24 h (in vivo [13]): 100%; AUC(0-t) at 24 h [14]: 57800 ng·h/mL; clearance at 24 h [15]: 8.3 mL/min/kg; Vd at 24 h [16]: 0.5 L/kg; half-life at 24 h [17]: 0.65 h; Cmax at 24 h (in vivo [18]): 11000 ng/mL
CC1(COc2ccc(C(F)(F)F)nc2)CCn2cc([N+](=O)[O-])nc2O1 (stereo not given) | 33 | 780 | 90 | 66 | > 64000 | 1900 | – | 7.3 (≈ 20.4 µM) | 42 | C0 at 24 h [10]: 1600 ng/mL; AUC(0-t) at 24 h [11]: 4000 ng·h/mL; Tmax at 24 h (in vivo [12]): 1 h; bioavailability at 24 h (in vivo [13]): 84%; AUC(0-t) at 24 h [14]: 41800 ng·h/mL; clearance at 24 h [15]: 4.1 mL/min/kg; Vd at 24 h [16]: 0.46 L/kg; half-life at 24 h [17]: 1.5 h; Cmax at 24 h (in vivo [18]): 11000 ng/mL; inhibition at 10 µM (hERG (KCNH2)): 17%
C[C@]1(COc2ccc(C(F)(F)F)nc2)CCn2cc([N+](=O)[O-])nc2O1 | – | 900 | 440 | – | > 64000 | 1300 | – | 12 (≈ 33.5 µM) | 72 | C0 at 24 h [10]: 1100 ng/mL; AUC(0-t) at 24 h [11]: 2520 ng·h/mL; Tmax at 24 h (in vivo [12]): 2 h; bioavailability at 24 h (in vivo [13]): 59%; AUC(0-t) at 24 h [14]: 37200 ng·h/mL; clearance at 24 h [15]: 6.6 mL/min/kg; Vd at 24 h [16]: 0.91 L/kg; half-life at 24 h [17]: 1.3 h; Cmax at 24 h (in vivo [18]): 7300 ng/mL
O=[N+]([O-])c1cn2c(n1)OC(COc1ncc(C(F)(F)F)cn1)CC2 (stereo not given) | – | 3300 | – | – | > 64000 | > 64000 | – | – | – | –
CC1(COc2ccc(F)nc2)CCn2cc([N+](=O)[O-])nc2O1 (stereo not given) | – | 4300 | 600 | – | > 64000 | 7100 | > 9 | – | – | –
